Measured values as given in ChEMBL document CHEMBL1201862, “PubChem BioAssay data set” (2004).
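How tested: cells in 96-well plates exposed to compound for 48 hours at five concentrations. GI50 is the concentration that inhibits growth by half.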 Active and inactive are the calls of the source. No stated cut-off is given here; in the data, active = GI50 up to about 1.1 µM and inactive = higher.

How the values were obtained:
Test in all cases: NCI tumour cell line growth inhibition, 48 h
[1] = tested on: SK-MEL-28
[2] = tested on: BT-549
[3] = tested on: HCT-116
[4] = tested on: NCI-H460
[5] = tested on: RPMI-8226
[6] = tested on: MOLT-4
[7] = tested on: UACC-62
[8] = tested on: LOX IMVI
[9] = tested on: CCRF-CEM
[10] = tested on: OVCAR-4
[11] = tested on: DU-145
[12] = tested on: MCF7
[13] = tested on: SF-268
[14] = tested on: IGROV-1
[15] = tested on: K562
[16] = tested on: SF-295
[17] = tested on: SW-620
[18] = tested on: HOP-92
[19] = tested on: UO-31

**Q.** For `Cc1ccc(NC(=O)COc2ccc(Cl)cc2)cc1Cl`, which GI50 [1] is on record?
**A.** > 100 µM (inactive)

**Q.** And the GI50 [2]?
**A.** 70.3 µM (inactive)

**Q.** And the GI50 [3]?
**A.** 14.4 µM (inactive)

**Q.** And the GI50 [4]?
**A.** > 100 µM (inactive)

**Q.** What about the GI50 [5] of the same compound?
**A.** 87.5 µM (inactive)

**Q.** What about the GI50 [6] of the same compound?
**A.** > 100 µM (inactive)

**Q.** And the GI50 [7]?
**A.** 53.3 µM (inactive)

**Q.** What about the GI50 [8] of the same compound?
**A.** 82 µM (inactive)

**Q.** What about the GI50 [9] of the same compound?
**A.** 0.278 µM (active)

**Q.** What about the GI50 [10] of the same compound?
**A.** > 100 µM (inactive)

**Q.** What about the GI50 [11] of the same compound?
**A.** > 100 µM (inactive)

**Q.** And the GI50 [12]?
**A.** > 100 µM (inactive)

**Q.** And the GI50 [13]?
**A.** 53.1 µM (inactive)

**Q.** And the GI50 [14]?
**A.** 36.5 µM (inactive)

**Q.** What about the GI50 [15] of the same compound?
**A.** > 100 µM (inactive)

**Q.** What about the GI50 [16] of the same compound?
**A.** 50.5 µM (inactive)

**Q.** What about the GI50 [17] of the same compound?
**A.** > 100 µM (inactive)

**Q.** What about the GI50 [18] of the same compound?
**A.** 51.8 µM (inactive)

**Q.** What about the GI50 [19] of the same compound?
**A.** 30.3 µM (inactive)

**Q.** For `CC(C)(C)c1cc(-c2cc(C(C)(C)C)n(-c3ccccc3)n2)nn1-c1ccccc1`, which GI50 [1] is on record?
**A.** > 100 µM (inactive)

**Q.** And the GI50 [2]?
**A.** > 100 µM (inactive)

**Q.** What about the GI50 [3] of the same compound?
**A.** > 100 µM (inactive)

**Q.** What about the GI50 [4] of the same compound?
**A.** 61.5 µM (inactive)

**Q.** And the GI50 [5]?
**A.** > 100 µM (inactive)

**Q.** What about the GI50 [6] of the same compound?
**A.** > 100 µM (inactive)

**Q.** What about the GI50 [7] of the same compound?
**A.** 11.6 µM (inactive)

**Q.** And the GI50 [8]?
**A.** 6.43 µM (inactive)

**Q.** What about the GI50 [9] of the same compound?
**A.** > 100 µM (inactive)

**Q.** What about the GI50 [10] of the same compound?
**A.** > 100 µM (inactive)

**Q.** What about the GI50 [11] of the same compound?
**A.** > 100 µM (inactive)

**Q.** And the GI50 [12]?
**A.** > 100 µM (inactive)

**Q.** What about the GI50 [13] of the same compound?
**A.** > 100 µM (inactive)

**Q.** What about the GI50 [14] of the same compound?
**A.** > 100 µM (inactive)

**Q.** And the GI50 [15]?
**A.** 3.27 µM (inactive)

**Q.** And the GI50 [16]?
**A.** > 100 µM (inactive)

**Q.** What about the GI50 [17] of the same compound?
**A.** 8.57 µM (inactive)

**Q.** What about the GI50 [18] of the same compound?
**A.** > 100 µM (inactive)

**Q.** What about the GI50 [19] of the same compound?
**A.** 30.4 µM (inactive)

**Q.** Which results are given for `Nn1c(S)nnc1-c1ccccc1Nc1ccccc1-c1nnc(S)n1N`?
**A.** GI50 [1]: > 50 µM (inactive); GI50 [2]: > 50 µM (inactive); GI50 [3]: > 50 µM (inactive); GI50 [4]: > 50 µM (inactive); GI50 [5]: 41.8 µM (inactive); GI50 [6]: > 50 µM (inactive); GI50 [7]: > 50 µM (inactive); GI50 [8]: > 50 µM (inactive); GI50 [9]: > 50 µM (inactive); GI50 [10]: > 50 µM (inactive); GI50 [11]: > 50 µM (inactive); GI50 [12]: > 50 µM (inactive); GI50 [13]: > 50 µM (inactive); GI50 [14]: > 50 µM (inactive); GI50 [15]: > 50 µM (inactive); GI50 [16]: > 50 µM (inactive); GI50 [17]: > 50 µM (inactive); GI50 [18]: > 50 µM (inactive); GI50 [19]: > 50 µM (inactive)

**Q.** Which GI50 [1] does the source give for `N#Cc1c(-c2ccc(Cl)cc2)[nH]c(=O)n(C2OC(CO)C(O)C(O)C2O)c1=O` (stereo unspecified) here?
**A.** > 100 µM (inactive)

**Q.** What about the GI50 [2] of the same compound?
**A.** > 100 µM (inactive)

**Q.** What about the GI50 [3] of the same compound?
**A.** > 100 µM (inactive)

**Q.** And the GI50 [4]?
**A.** > 100 µM (inactive)

**Q.** And the GI50 [5]?
**A.** > 100 µM (inactive)

**Q.** What about the GI50 [6] of the same compound?
**A.** > 100 µM (inactive)

**Q.** And the GI50 [7]?
**A.** > 100 µM (inactive)

**Q.** What about the GI50 [9] of the same compound?
**A.** > 100 µM (inactive)

**Q.** And the GI50 [10]?
**A.** > 100 µM (inactive)

**Q.** And the GI50 [11]?
**A.** > 100 µM (inactive)

**Q.** And the GI50 [12]?
**A.** > 100 µM (inactive)

**Q.** And the GI50 [13]?
**A.** > 100 µM (inactive)

**Q.** And the GI50 [14]?
**A.** 22.6 µM (inactive)

**Q.** And the GI50 [15]?
**A.** > 100 µM (inactive)

**Q.** What about the GI50 [16] of the same compound?
**A.** > 100 µM (inactive)

**Q.** What about the GI50 [17] of the same compound?
**A.** > 100 µM (inactive)

**Q.** And the GI50 [18]?
**A.** 26.2 µM (inactive)

**Q.** What about the GI50 [19] of the same compound?
**A.** > 100 µM (inactive)

**Q.** Which results are given for `C=C1C(=O)OC2CC(C)C3(O)CCC(=O)C3(C)CC12` (stereo unspecified)?
**A.** GI50 [1]: 54.8 µM (inactive); GI50 [2]: 44.2 µM (inactive); GI50 [3]: 31.1 µM (inactive); GI50 [5]: 14.8 µM (inactive); GI50 [6]: 22.2 µM (inactive); GI50 [7]: 44.3 µM (inactive); GI50 [8]: 31.8 µM (inactive); GI50 [9]: 33.8 µM (inactive); GI50 [10]: 18.7 µM (inactive); GI50 [11]: 31.9 µM (inactive); GI50 [12]: 29.2 µM (inactive); GI50 [13]: 18.5 µM (inactive); GI50 [14]: 23.8 µM (inactive); GI50 [16]: 40.5 µM (inactive); GI50 [17]: 42.1 µM (inactive); GI50 [18]: 57.1 µM (inactive); GI50 [19]: 28.2 µM (inactive)

**Q.** How did the GI50 [1] turn out when `C[C@H]1CN[C@@H]2[C@@H](C)[C@H]3[C@@H](C[C@H]4[C@@H]5CC[C@H]6C[C@@H](N)CC[C@]6(C)[C@H]5CC[C@]34C)O[C@@]2(O)C1` was run?
**A.** 1.77 µM (inactive)

**Q.** What about the GI50 [2] of the same compound?
**A.** 2.19 µM (inactive)

**Q.** What about the GI50 [3] of the same compound?
**A.** 1.29 µM (inactive)

**Q.** And the GI50 [4]?
**A.** 2.32 µM (inactive)

**Q.** And the GI50 [5]?
**A.** 2.28 µM (inactive)

**Q.** And the GI50 [6]?
**A.** 1.69 µM (inactive)

**Q.** What about the GI50 [7] of the same compound?
**A.** 1.95 µM (inactive)

**Q.** What about the GI50 [8] of the same compound?
**A.** 1.73 µM (inactive)

**Q.** What about the GI50 [9] of the same compound?
**A.** 0.561 µM (active)

**Q.** And the GI50 [10]?
**A.** 3.75 µM (inactive)

**Q.** And the GI50 [11]?
**A.** 4.03 µM (inactive)

**Q.** And the GI50 [12]?
**A.** 4.18 µM (inactive)

**Q.** What about the GI50 [13] of the same compound?
**A.** 1.5 µM (inactive)

**Q.** What about the GI50 [14] of the same compound?
**A.** 2.15 µM (inactive)

**Q.** And the GI50 [15]?
**A.** 1.91 µM (inactive)

**Q.** And the GI50 [16]?
**A.** 2.92 µM (inactive)

**Q.** And the GI50 [17]?
**A.** 2.25 µM (inactive)

**Q.** And the GI50 [18]?
**A.** 2.47 µM (inactive)

**Q.** What about the GI50 [19] of the same compound?
**A.** 2.25 µM (inactive)
